In US20060018864A1, “Cosmetic preparation containing glycerylamino acid derivative” (priority 2002, published 2006):
Read-outs that look alike come from different tables or passages of the source.

Legend:
[1] = test system: skin (forearm of panelists); experiment: Moisturizing effect on skin: skin conductance (SKICON200-EX) on forearm of panelists; assay type: in vivo, human; settings: for change in vivo at 5 %: Homo sapiens, topical, 20 min, read-out: Moisturizing effect on skin
Experimental: Evaluation was carried out in a manner that forearm of panelists was washed and then applied with 100 μl of aqueous amino acid N-glyceryl derivative solution prepared in 5% concentration. Then, conductance value of the skin was measured by SKICON200-EX (manufactured by IBS K. K.) before the application and in 20 minutes elapsed after the application.
Moisturizing effect on skin was evaluated by the following criteria.
Moisturizing effect on skin rating criteria • ◯: Conductance changing ratio is 10% more • □: Conductance changing ratio is 3% or more and less than 10% • X: Conductance changing ratio is less than 3.

[2] = Moisturizing effect measurement employing keratin powder (ground wool); assay type: physicochemical; settings: (B/A)×100: water retained after further 6 hours at 20° C., 20.0% relative humidity, relative to water absorbed at 79.2% relative humidity for 48 hours
Experimental: For the constant-humidity bath under 20.0% of relative humidity, saturated aqueous potassium acetate solution was employed.
Moisturizing effect was evaluated by the following criteria,
Moisturizing effect rating criteria • ⊚: 60 or more • ◯: 50 or more and less than 60 • Δ: 40 or more and less than 50 • X: Less than 40

[3] = Moisture-absorption ability measurement employing keratin powder (ground wool); assay type: physicochemical; settings: keratin powder with sample, 20° C., 79.2% relative humidity, 48 hours; absorbed water per 1 g of keratin powder
Experimental: [Method of Moisture-Absorption Ability Measurement Carried Out by Employing Keratin Powder (Ground Wool)]
Moisture-absorption ability was evaluated by the following criteria.
Moisture-absorption ability rating criteria • ⊚: Amount of absorbed water per 1 g of keratin powder is 0.60 g or more. • ◯: Amount of absorbed water per 1 g of keratin powder is 0.50 g or more and less than 0.60 g • Δ: Amount of absorbed water per 1 g of keratin powder is 0.40 g or more and less than 0.50 g • X: Amount of absorbed water per 1 g of keratin powder is less than 0.40 g [Method of Moisturizing Effect Measurement Carried Out by Employing Keratin Powder (Ground Wool)]

[4] = Stability evaluation: odor of sample solution after storage at 50° C. for 1 month; settings: for Stability: 5% by weight sample solution, sealed, 50° C., 1 month, odor, average of 5 panelists (3: no degradation odor, 1: strong degradation odor); for Formation of homogeneous solution of sample: 5% by weight sample solution for stability evaluation
Excerpt: [Method of Stability Evaluation]
After 1 month being elapsed, the sealing was opened, followed by odor of samples being evaluated by 5 panelists according to the following criteria.
Odor rating criteria • 3: No degradation odor • 2: Almost no degradation odor • 1: Strong degradation odor
Odor evaluation value of each sample was the average of values determined by 5 panelists; the evaluation result was represented by the following marks rated according to respective criteria. • ∘: 2.4 or more and less than 3 • □: 1.8 or more and less than 2.4 • X: Less than 1.8

[5] = 100 μl of 5% aqueous solution on washed forearm, ten panelists, conductance changing ratio before vs 20 minutes after application

| Moisturizing effect [2] | Stability [4] | Formation of homogeneous solution of sample [4] | Compound | Moisturizing effect on skin [1, 5] | Moisture-absorption ability [3] | change in vivo at 5 % [1, 5] [%] | change in vivo at 5 % [1] [%] |
| --- | --- | --- | --- | --- | --- | --- | --- |
| ◯ (50 or more and less than 60) |  |  | O=C(O)[C@@H]1CCCN1 [Proline] | Δ | ◯ (Amount of absorbed water per 1 g of keratin powder is 0.50 g or more and less than 0.60 g) |  |  |
| Δ (40 or more and less than 50) |  |  | N[C@@H](CO)C(=O)O [Serine] |  | Δ (Amount of absorbed water per 1 g of keratin powder is 0.40 g or more and less than 0.50 g) | < 3 |  |
| ⊚ (60 or more) | ◯ |  | O=C(O)[C@H](CO)NCC(O)CO (stereo partly drawn) [Glyceryl derivative of serine, N-glycerylserine] |  | ⊚ (Amount of absorbed water per 1 g of keratin powder is 0.60 g or more) | > 10 |  |
| ◯ (50 or more and less than 60) | ◯ |  | O=C(O)[C@H](Cc1ccccc1)NCC(O)CO (stereo partly drawn) [Glyceryl derivative of phenylalanine, N-glycerylphenylalanine] |  | ⊚ (Amount of absorbed water per 1 g of keratin powder is 0.60 g or more) | > 10 |  |
| ⊚ (60 or more) |  |  | CN(CC(=O)O)CC(O)CO (stereo not drawn) [Glyceryl derivative of sarcosine, N-glyaerylsarcosine] | ◯ (Conductance changing ratio is 10% more) | ⊚ (Amount of absorbed water per 1 g of keratin powder is 0.60 g or more) |  |  |
| X (Less than 40) | Δ | did not form homogeneous solution | N[C@@H](Cc1ccccc1)C(=O)O [Phenylalanine] |  | X (Amount of absorbed water per 1 g of keratin powder is less than 0.40 g) | < 3 |  |
| ⊚ (60 or more) | Δ |  | O=C(O)[C@@H]1CCCN1CC(O)CO (stereo partly drawn) [Glyceryl derivative of proline, N-glycerylproline] |  | ⊚ (Amount of absorbed water per 1 g of keratin powder is 0.60 g or more) | > 10 |  |
| Δ (40 or more and less than 50) |  |  | NCC(=O)O [Glycine] | Δ | Δ (Amount of absorbed water per 1 g of keratin powder is 0.40 g or more and less than 0.50 g) |  |  |
| Δ (40 or more and less than 50) | Δ |  | N[C@@H](CCC(=O)[O-])C(=O)[O-].O.[Na+].[Na+] [Sodium glutamate hydrate] |  | Δ (Amount of absorbed water per 1 g of keratin powder is 0.40 g or more and less than 0.50 g) |  | > 10 |
|  | Δ | did not form homogeneous solution | CC(C)C[C@H](N)C(=O)O [Leucine] |  |  | < 3 |  |
| Δ (40 or more and less than 50) |  |  | Cl.N[C@@H](Cc1cnc[nH]1)C(=O)O [Histidine hdrochloride] | Δ | Δ (Amount of absorbed water per 1 g of keratin powder is 0.40 g or more and less than 0.50 g) |  |  |
| Δ (40 or more and less than 50) | Δ |  | CNCC(=O)O [Sarcosine] |  | Δ (Amount of absorbed water per 1 g of keratin powder is 0.40 g or more and less than 0.50 g) | < 3 |  |

More lines, now with the values behind:

| Compound | Moisturizing effect [2] | Stability [4] | Formation of homogeneous solution of sample [4] | Moisturizing effect on skin [1, 5] | Moisture-absorption ability [3] | change in vivo at 5 % [1, 5] [%] | change in vivo at 5 % [1] [%] |
| --- | --- | --- | --- | --- | --- | --- | --- |
| Cl.O=C(O)[C@H](Cc1c[nH]cn1)NCC(O)CO (stereo partly drawn) [Glyceryl derivative of histidine, M-glycerylhistidine hydrochloride] | ⊚ (60 or more) |  |  | ⊚ | ⊚ (Amount of absorbed water per 1 g of keratin powder is 0.60 g or more) |  |  |
| Cl.NCCCC[C@H](N)C(=O)O [Lysine hydrochloride] | Δ (40 or more and less than 50) | Δ |  | Δ | Δ (Amount of absorbed water per 1 g of keratin powder is 0.40 g or more and less than 0.50 g) |  |  |
| Cl.NCCCC[C@H](NCC(O)CO)C(=O)O (stereo partly drawn) [Glyceryl derivative of lysine, N-glyceryllysine hydrochloride] | ⊚ (60 or more) | Δ |  | ⊚ | ⊚ (Amount of absorbed water per 1 g of keratin powder is 0.60 g or more) |  |  |
| Cl.N=C(N)NCCC[C@H](NCC(O)CO)C(=O)O (stereo partly drawn) [Glyceryl derivative of arginine, N-glycerylarginine hydrochloride] | ⊚ (60 or more) | ⊚ |  | ⊚ | ⊚ (Amount of absorbed water per 1 g of keratin powder is 0.60 g or more) |  |  |
| C[C@H](NCC(O)CO)C(=O)O (stereo partly drawn) [Glyceryl derivative of alanine, N-glycerylalanine] | ◯ (50 or more and less than 60) | Δ |  |  | ⊚ (Amount of absorbed water per 1 g of keratin powder is 0.60 g or more) | > 10 |  |
| OCC(O)CO [Glycerin] | ◯ (50 or more and less than 60) | ◯ |  |  | ◯ (Amount of absorbed water per 1 g of keratin powder is 0.50 g or more and less than 0.60 g) |  |  |
| C[C@H](N)C(=O)O [Alanine] |  | X (Less than 1.8) |  |  |  |  |  |
| N[C@@H](CC(=O)[O-])C(=O)[O-].O.[Na+].[Na+] [Sodium aspartate hydrate] | Δ (40 or more and less than 50) | Δ |  | Δ | Δ (Amount of absorbed water per 1 g of keratin powder is 0.40 g or more and less than 0.50 g) |  |  |
| Cl.N=C(N)NCCC[C@H](N)C(=O)O [Arginine hydrochloride] | ◯ (50 or more and less than 60) | ◯ |  |  | ◯ (Amount of absorbed water per 1 g of keratin powder is 0.50 g or more and less than 0.60 g) |  | > 10 |
| 1 sodium N-glycerylaspartate [Glyceryl derivative of aspartic acid] |  |  |  | ⊚ |  |  |  |
| O=C([O-])CC[C@H](NCC(O)CO)C(=O)[O-].[Na+].[Na+] (stereo partly drawn) [Glyceryl derivative of glutamic acid, sodium N-glycerylglutamate] | ⊚ (60 or more) | ◯ |  | ⊚ | ⊚ (Amount of absorbed water per 1 g of keratin powder is 0.60 g or more) |  |  |
| O=C(O)CNCC(O)CO (stereo not drawn) [Glyceryl derivative of glycine, N-glycerylglycine] | ⊚ (60 or more) | Δ |  |  | ⊚ (Amount of absorbed water per 1 g of keratin powder is 0.60 g or more) | > 10 |  |
| CC(O)CCO (stereo not drawn) [1,3-Butylene glycol] | Δ (40 or more and less than 50) | Δ |  | Δ | Δ (Amount of absorbed water per 1 g of keratin powder is 0.40 g or more and less than 0.50 g) |  |  |
| CC(C)C[C@H](NCC(O)CO)C(=O)O (stereo partly drawn) [Glyceryl derivative of leucine, N-glycervylleucine] | ◯ (50 or more and less than 60) |  |  | ◯ (Conductance changing ratio is 10% more) | ⊚ (Amount of absorbed water per 1 g of keratin powder is 0.60 g or more) |  |  |
